# Laboratory results: patent US20020193587A1, “Penicillin crystal and process for producing the same” (priority 2000, published 2002)
# Assay: Storage stability in sealed test tubes at room temperature for 1 year, purity determined by HPLC
# Format: physicochemical
# Conditions: 10 g in sealed test tube, stored at room temperature (5 to 35° C.) for 1 year, starting purity 100% (Examples 1, 2), 79% (Comparative Example 1), 93% (Comparative Example 2)
# Description: A test tube was charged with 10 g of each of the TAZB crystal of Example 1 (purity 100%), the TAZB crystal of Example 2 (purity 100%), the TAZB oily substance of Comparative Example 1 (purity 79%), and the TAZB amorphous powder of Comparative Example 2 (purity 93%). The test tubes were sealed and stored at room temperature (5 to 35° C.) for 1 year after which their purity was determined by HPLC.
row,purity after storage,Substance
1,81%,"diphenylmethyl 2-methyl-2-triazolylmethylpenam-3-carboxylate 1,1-dioxide [Comparative Example 2]"
2,99%,"diphenylmethyl 2-methyl-2-triazolylmethylpenam-3-carboxylate 1,1-dioxide [Example 2]"
3,52%,"diphenylmethyl 2-methyl-2-triazolylmethylpenam-3-carboxylate 1,1-dioxide [Comparative Example 1]"
